Here are results for three compounds from ChEMBL document CHEMBL1155441 (J Med Chem, 2010).

Structures are written as SMILES. A value given as a limit tells only on which side of the number the result lay.

In the assay the target is WD repeat-containing protein 5 (Homo sapiens, UniProt P61964). Kind of assay: Binding affinity to WDR5 expressed in pLysS cells by optimized fluorescent polarization based competitive binding assay. The assay is classed as biochemical.

What is called Ki is a measure of affinity in units of concentration, obtained from inhibition or displacement. Higher therefore signals lower affinity. What is called IC50 is the concentration that inhibits the measured activity by half. A high value points to weaker potency in that assay.

`CC(=O)N[C@@H](C)C(=O)N[C@@H](CCCNC(=N)N)C(=O)N[C@H](C(=O)N[C@@H](CCCCN)C(=O)N[C@@H](CCC(N)=O)C(=O)N[C@H](C(=O)N[C@@H](C)C(=O)N[C@@H](CCCNC(=N)N)C(=O)N[C@@H](CCCCN)C(=O)N[C@@H](CO)C(N)=O)[C@@H](C)O)[C@@H](C)O` yielded an inhibitory constant (Ki) of less than 0.001 µM.
Compound `CC(=O)N[C@@H](C)C(=O)N[C@@H](CCCNC(=N)N)C(=O)N(C)[C@@H](C)C(N)=O` showed an IC50 greater than 300 µM and a Ki greater than 50 µM.
Turning to `C[C@H](N)C(=O)N[C@@H](CCCN=C(N)N)C(=O)N[C@@H](C)C(N)=O`, the IC50 is greater than 300 µM and the Ki was greater than 50 µM.
